From publication PMC3131558, “Plitidepsin Has a Safe Cardiac Profile: A Comprehensive Analysis” (Marine Drugs, 2011)

How the values were obtained:
[1] = system: Purkinje fibers; settings: preclinical, in vitro; cited from earlier work
Description: (§1) Plitidepsin, a cyclic depsipeptide of marine origin, is an investigational drug currently in clinical development as a single agent as well as in combination with other anticancer agents for the treatment of different solid tumors and hematological malignancies. […] CAE ...

[2] = system: HERG; settings: preclinical, in vitro; cited from earlier work
Description: as §1

[3] = system: guinea pig Langendorff preparation; settings: exploratory study; cited from earlier work
Description: as §1

[4] = system: dog; settings: preclinical; cited from earlier work
Description: as §1

[5] = system: adult patients with advanced solid tumors or hematological malignancies; test: Cardiac adverse events (CAEs) in phase I/II clinical trials of single-agent plitidepsin; type: in vivo, human; settings: for CAE group: Miscellaneous Cardiac Adverse Events / CAE group: Myocardial Injury / CAE group: Rhythm Abnormalities / CAE subgroup: Irregular Supraventricular Tachycardia / CAE subgroup: Other Myocardial Injury / CAE subgroup: Other Rhythm Abnormalities / CAE subgroup: Possible Ischemic Related / CAE subgroup: Regular Supraventricular Tachycardia / CAE: Acute myocardial infarction / CAE: Arrhythmia / CAE: Atrial fibrillation / CAE: Atrial flutter / CAE: Atrioventricular block / CAE: Cardiac amyloidosis / CAE: Cardiac failure / CAE: Cardiac troponin I increased / CAE: Cardiomegaly / CAE: Cardiomyopathy / CAE: Change in electrocardiogram / CAE: Chest pain / CAE: Ejection fraction decreased / CAE: Electrocardiogram QT prolonged / CAE: Electrocardiogram ST-T change / CAE: Heart rate irregular / CAE: Hypertension / CAE: Hypotension / CAE: Myocardial ischemia / CAE: Palpitations / CAE: Pericardial effusion / CAE: Sinus tachycardia / CAE: Supraventricular arrhythmia / CAE: Supraventricular tachycardia / CAE: Tachycardia / CAE: Ventricular hypokinesia / Total Adverse Events (cardiac): regardless of relationship
Description: Clinical trials included in this cardiac safety analysis were 4 phase I and 14 phase II studies evaluating plitidepsin as single-agent chemotherapy in a total of 578 adult patients (see details in Table 1). All available information on CAEs was retrieved from Pharma Mar’s internal Pharmacovigilance and Clinical Trials databases. The reviewed sources of information were Case Report Forms (CRFs), serious adverse event (SAE) reports, follow-up reports and supplementary reports attached or requested. Median follow-up was 12.0 months (95% CI, 7.6–13.8) for phase I trials and 12.3 months for phase II trials (95% CI, 11.0–13.7). Cutoff for data analysis was 20 November 2008.
All adverse events (AEs) with preferred terms of the Medical Dictionary for Regulatory Activities (MedDRA) that could be potentially classified as cardiac were evaluated. Additionally, events included in other systems as well in those patients with any vascular risk associated (prior history or within the trial) were also reviewed. Laboratory data were also reviewed in those cases with grade 3/4 creatine phosphokinase increase and/or troponin ([…] or troponin I) elevations. Patients’ prior history and baseline information were searched for any associated vascular risk (diabetes, hypercholesterolemia, hypertension, smoking, prior myocardial infarction or angina, etc.). All events retrieved using the aforementioned criteria were reviewed to identify and exclude from analysis potential CAEs due to obvious cancer-related symptoms (e.g., sinusal tachycardia in anemic patients, chest pain obviously related to tumor involvement of the chest). […] The information obtained was tabulated and a descriptive analysis is reported here.

[6] = Population PK exposure (Cmax, AUC0-28day) by CAE category; type: in vivo, human; settings: whole blood, simulated, mean (SD)
[7] = Other rhythm abnormalities (n = 10)

plitidepsin
Cardiotoxic profile in study using Purkinje fibers [1]: did not show a cardiotoxic profile
Cardiotoxic profile in HERG assay [2]: did not show a cardiotoxic profile
Cardiac effects of escalating doses in guinea pig Langendorff preparation [3]: did not show a cardiotoxic profile
Cardiotoxic profile in in vivo study in the dog [4]: did not show a cardiotoxic profile
CAE group: Miscellaneous Cardiac Adverse Events ([5]; All studies (n = 578)): 6 (1.0%) Patients (%)
CAE group: Myocardial Injury ([5]; All studies (n = 578)): 17 (3.0%) Patients (%)
CAE group: Rhythm Abnormalities ([5]; All studies (n = 578)): 31 (5.4%) Patients (%)
CAE subgroup: Irregular Supraventricular Tachycardia ([5]; All studies (n = 578)): 15 (2.6%) Patients (%)
CAE subgroup: Other Myocardial Injury ([5]; All studies (n = 578)): 7 (1.2%) Patients (%)
CAE subgroup: Other Rhythm Abnormalities ([5]; All studies (n = 578)): 13 (2.2%) Patients (%)
CAE subgroup: Possible Ischemic Related ([5]; All studies (n = 578)): 10 (1.7%) Patients (%)
CAE subgroup: Regular Supraventricular Tachycardia ([5]; All studies (n = 578)): 6 (1.0%) Patients (%)
CAE: Acute myocardial infarction ([5]; All studies (n = 578)): 1 (0.2%) Patients (%)
CAE: Arrhythmia ([5]; All studies (n = 578)): 1 (0.2%) Patients (%)
CAE: Atrial fibrillation ([5]; All studies (n = 578)): 11 (1.9%) Patients (%)
CAE: Atrial flutter ([5]; All studies (n = 578)): 5 (0.9%) Patients (%)
CAE: Atrioventricular block ([5]; All studies (n = 578)): 1 (0.2%) Patients (%)
CAE: Cardiac amyloidosis ([5]; All studies (n = 578)): 1 (0.2%) Patients (%)
CAE: Cardiac failure ([5]; All studies (n = 578)): 3 (0.5%) Patients (%)
CAE: Cardiac troponin I increased ([5]; All studies (n = 578)): 1 (0.2%) Patients (%)
CAE: Cardiomegaly ([5]; All studies (n = 578)): 1 (0.2%) Patients (%)
CAE: Cardiomyopathy ([5]; All studies (n = 578)): 2 (0.3%) Patients (%)
CAE: Change in electrocardiogram ([5]; All studies (n = 578)): 1 (0.2%) Patients (%)
CAE: Chest pain ([5]; All studies (n = 578)): 4 (0.7%) Patients (%)
CAE: Ejection fraction decreased ([5]; All studies (n = 578)): 1 (0.2%) Patients (%)
CAE: Electrocardiogram QT prolonged ([5]; All studies (n = 578)): 5 (0.9%) Patients (%)
CAE: Electrocardiogram ST-T change ([5]; All studies (n = 578)): 1 (0.2%) Patients (%)
CAE: Heart rate irregular ([5]; All studies (n = 578)): 1 (0.2%) Patients (%)
CAE: Hypertension ([5]; All studies (n = 578)): 1 (0.2%) Patients (%)
CAE: Hypotension ([5]; All studies (n = 578)): 2 (0.3%) Patients (%)
CAE: Myocardial ischemia ([5]; All studies (n = 578)): 3 (0.5%) Patients (%)
CAE: Palpitations ([5]; All studies (n = 578)): 6 (1.0%) Patients (%)
CAE: Pericardial effusion ([5]; All studies (n = 578)): 3 (0.5%) Patients (%)
CAE: Sinus tachycardia ([5]; All studies (n = 578)): 1 (0.2%) Patients (%)
CAE: Supraventricular arrhythmia ([5]; All studies (n = 578)): 1 (0.2%) Patients (%)
CAE: Supraventricular tachycardia ([5]; All studies (n = 578)): 1 (0.2%) Patients (%)
CAE: Tachycardia ([5]; All studies (n = 578)): 3 (0.5%) Patients (%)
CAE: Ventricular hypokinesia ([5]; All studies (n = 578)): 1 (0.2%) Patients (%)
Total Adverse Events (cardiac) ([5]; All studies (n = 578)): 46 (8.0%) Patients (%)
CAE group: Miscellaneous Cardiac Adverse Events ([5]; Phase II studies (n = 364)): 3 (0.8%) Patients (%)
CAE group: Myocardial Injury ([5]; Phase II studies (n = 364)): 14 (3.8%) Patients (%)
CAE group: Rhythm Abnormalities ([5]; Phase II studies (n = 364)): 25 (6.9%) Patients (%)
CAE subgroup: Irregular Supraventricular Tachycardia ([5]; Phase II studies (n = 364)): 14 (3.8%) Patients (%)
CAE subgroup: Other Myocardial Injury ([5]; Phase II studies (n = 364)): 6 (1.6%) Patients (%)
CAE subgroup: Other Rhythm Abnormalities ([5]; Phase II studies (n = 364)): 13 (3.6%) Patients (%)
CAE subgroup: Possible Ischemic Related ([5]; Phase II studies (n = 364)): 8 (2.2%) Patients (%)
CAE subgroup: Regular Supraventricular Tachycardia ([5]; Phase II studies (n = 364)): 1 (0.3%) Patients (%)
CAE: Acute myocardial infarction ([5]; Phase II studies (n = 364)): 1 (0.3%) Patients (%)
CAE: Arrhythmia ([5]; Phase II studies (n = 364)): 1 (0.3%) Patients (%)
CAE: Atrial fibrillation ([5]; Phase II studies (n = 364)): 10 (2.7%) Patients (%)
CAE: Atrial flutter ([5]; Phase II studies (n = 364)): 5 (1.4%) Patients (%)
CAE: Atrioventricular block ([5]; Phase II studies (n = 364)): 1 (0.3%) Patients (%)
CAE: Cardiac amyloidosis ([5]; Phase II studies (n = 364)): 1 (0.3%) Patients (%)
CAE: Cardiac failure ([5]; Phase II studies (n = 364)): 2 (0.5%) Patients (%)
CAE: Cardiac troponin I increased ([5]; Phase II studies (n = 364)): 1 (0.3%) Patients (%)
CAE: Cardiomegaly ([5]; Phase II studies (n = 364)): 1 (0.3%) Patients (%)
CAE: Cardiomyopathy ([5]; Phase II studies (n = 364)): 2 (0.5%) Patients (%)
CAE: Change in electrocardiogram ([5]; Phase II studies (n = 364)): 1 (0.3%) Patients (%)
CAE: Chest pain ([5]; Phase II studies (n = 364)): 2 (0.5%) Patients (%)
CAE: Ejection fraction decreased ([5]; Phase II studies (n = 364)): 1 (0.3%) Patients (%)
CAE: Electrocardiogram QT prolonged ([5]; Phase II studies (n = 364)): 5 (1.4%) Patients (%)
CAE: Electrocardiogram ST-T change ([5]; Phase II studies (n = 364)): 1 (0.3%) Patients (%)
CAE: Heart rate irregular ([5]; Phase II studies (n = 364)): 1 (0.3%) Patients (%)
CAE: Hypertension ([5]; Phase II studies (n = 364)): 0 (0.0%) Patients (%)
CAE: Hypotension ([5]; Phase II studies (n = 364)): 2 (0.5%) Patients (%)
CAE: Myocardial ischemia ([5]; Phase II studies (n = 364)): 3 (0.8%) Patients (%)
CAE: Palpitations ([5]; Phase II studies (n = 364)): 6 (1.6%) Patients (%)
CAE: Pericardial effusion ([5]; Phase II studies (n = 364)): 1 (0.3%) Patients (%)
CAE: Sinus tachycardia ([5]; Phase II studies (n = 364)): 1 (0.3%) Patients (%)
CAE: Supraventricular arrhythmia ([5]; Phase II studies (n = 364)): 0 (0.0%) Patients (%)
CAE: Supraventricular tachycardia ([5]; Phase II studies (n = 364)): 0 (0.0%) Patients (%)
CAE: Tachycardia ([5]; Phase II studies (n = 364)): 0 (0.0%) Patients (%)
CAE: Ventricular hypokinesia ([5]; Phase II studies (n = 364)): 1 (0.3%) Patients (%)
Total Adverse Events (cardiac) ([5]; Phase II studies (n = 364)): 37 (10.2%) Patients (%)
Plitidepsin-related CAEs: chest pain ([5]; of 15 related CAEs): 2 n
Plitidepsin-related CAEs: palpitations ([5]; of 15 related CAEs): 4 n
Patients with a CAE who had a fatal outcome as a direct consequence ([5]; related, unrelated or unknown CAEs): None
Potentially life-threatening arrhythmias (e.g., ventricular arrhythmias) ([5]; within plitidepsin trials): did not occur
AUC0–28day ([6]; Cardiac Adverse Event (n = 36)): 3236 (2955) h·ng/mL
Cmax ([6]; Cardiac Adverse Event (n = 36)): 61.0 (27.9) ng/mL
Cmax ([6]; Irregular supraventricular tachycardia (n = 12)): 63.7 (34.6) ng/mL
AUC0–28day ([6]; Myocardial Injury (n = 11)): 4077 (3653) h·ng/mL
Cmax ([6]; Myocardial Injury (n = 11)): 69.5 (28.2) ng/mL
Cmax ([6]; Other myocardial injury (n = 4)): 64.7 (30.6) ng/mL
AUC0–28day [6, 7]: 2064 (1449) h·ng/mL
Cmax [6, 7]: 56.8 (26.2) ng/mL
Cmax ([6]; Possible ischemic related (n = 7)): 72.2 (28.8) ng/mL
Cmax ([6]; Regular supraventricular tachycardia (n = 6)): 57.2 (23.1) ng/mL
Cmax ([6]; Rhythm Abnormalities (n = 25)): 61.5 (29.8) ng/mL
